Reference: patent publication US10034886B2, “GLP-1 receptor modulators” (Celgene International II SÀRL, priority 2014, dated 2018)
Read-outs that look alike come from different tables or passages of the source.

Target: T1, GLP-1R (Homo sapiens, UniProt P43220)
T1 construct: host or cells: GLP-1R CRE-bla CHO-K1 cells
Assay: EC20 GLP-1(9-36) PAM cAMP assay: dose response of compound in the presence of fixed concentration of GLP-1(9-36)
Assay type: cell-based
Conditions: GLP-1R CRE-bla CHO-K1 cells, read-out: EC20 GLP-1(9-36) PAM EC50
Experimental: EC20 GLP-1(9-36) PAM cAMP Assay: Dose Response of Compound in the Presence of Fixed Concentration of GLP-1 (9-36).
GLP-1R CRE-bla CHO-K1 cells cultured in growth medium (DMEM-High glucose, 10% dialyzed FBS, 0.1 mM NEAA, 25 mM Hepes, 100 U/mL penicillin/100 μg/mL streptomycin, 5 μg/mL Blasticidin, 600 μg/mL Hygromycin) were trypsinized and plated in suspension into 384 well white flat bottom plates at 5000 cells/well in 12 μL assay buffer (Hanks Balanced Salt solution, 10 mM hepes, 0.1% BSA, pH 7.4). A 5× compound dose response curve (12-point) was generated in assay buffer containing 1.5 mM IBMX, 4% DMSO. GLP-1(9-36) was diluted to 4.2 μM in assay buffer containing 1.5 mM IMBX and 4% DMSO. The 5× compound dose response was added (3 μL), followed by 0.5 μL of GLP-1(9-36) and cells were incubated for 30 min at 37° C. Direct detection of cAMP was carried out using DiscoveRx HitHunter cAMP kit according to manufacturer's instructions and luminescence was read using a SpectraMax M5 plate reader. Luminescence was converted to total cAMP using a cAMP standard curve and data was analyzed by non-linear regression to determine the EC50 and Emax.
GLP-1(7-36): […]-NH2 (SEQ ID NO: 2). GLP-1(9-36): […]-NH2 (SEQ ID NO: 3). GLP-1(7-36) was purchased from GenScript. GLP-1(9-36) was purchased from Biopeptide Co., Inc.
The EC20GLP-1(9-36) PAM Activity range is denoted as follows: + denotes activity <0.8 μM, ++ denotes activity between 0.8 and 2.5 μM, +++ denotes activity between 2.5 and 5 μM, and ++++ denotes activity 5 to 10 μM.

[1] = dose response of compound in presence of fixed concentration of GLP-1(9-36)
[2] = compound dose response with fixed concentration of GLP-1(9-36)

T1 sequence (P43220 24-463): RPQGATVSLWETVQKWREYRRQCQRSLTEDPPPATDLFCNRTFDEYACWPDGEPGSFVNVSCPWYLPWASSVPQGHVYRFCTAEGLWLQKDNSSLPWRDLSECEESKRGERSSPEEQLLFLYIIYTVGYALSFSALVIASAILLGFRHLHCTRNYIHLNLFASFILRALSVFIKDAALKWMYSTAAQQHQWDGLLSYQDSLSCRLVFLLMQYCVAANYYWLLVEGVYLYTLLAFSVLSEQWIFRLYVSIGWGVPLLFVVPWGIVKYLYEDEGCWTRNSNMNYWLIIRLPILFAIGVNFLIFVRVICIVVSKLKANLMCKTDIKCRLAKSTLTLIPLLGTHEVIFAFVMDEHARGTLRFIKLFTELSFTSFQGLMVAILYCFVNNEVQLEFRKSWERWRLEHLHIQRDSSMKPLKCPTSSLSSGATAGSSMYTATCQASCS
T1 sequence (P01275 100-127 partner limits assumed): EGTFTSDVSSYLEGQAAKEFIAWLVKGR

SMILES	EC50 [1]	EC50 [2]
CCCCCCCOc1ccc(-c2cnc(-c3ccc(C[C@H](NC(=O)c4ccc(C(C)(C)C)s4)C(=O)NC[C@@H]4CCNC4)cc3)nc2)cc1 [Compound 439]	2.5 to 5 µM	–
CCCCCCCOc1ccc(-c2cnc(-c3ccc(C[C@H](NC(=O)c4ccc(CCC)s4)C(=O)N4CCC[C@H]4C(=O)O)cc3)nc2)cc1 [Compound 1069]	0.8 to 2.5 µM	–
CC[C@H]1CC[C@H](c2ccc(-c3cnc(-c4ccc(C[C@H](NC(=O)c5cnc(C(C)(C)C)nc5)C(=O)N5CC(C(=O)O)C5)cc4)nc3)cc2)CC1 [Compound 1164]	< 0.8 µM	–
CCCCCCCOc1ccc(-c2cnc(-c3ccc(C[C@H](NC(=O)c4ccc(C(C)(C)C)s4)C(=O)NC4CCC(C(=O)O)C4)cc3)nc2)cc1 (stereo partly drawn) [Compound 608]	0.8 to 2.5 µM	–
CCCc1ccc(C(=O)N[C@@H](Cc2ccc(-c3ncc(-c4ccc(OCCCC(C)C)cc4)cn3)cc2)C(=O)N2CC(C(=O)O)C2)s1 [Compound 1240]	–	0.8 to 2.5 µM
CC(C)(C)c1ccc(C(=O)N[C@@H](Cc2ccc(-c3ncc(-c4ccc(-c5ccccc5C(F)(F)F)cc4F)cn3)cc2)C(=O)N2CC(C(=O)O)C2)s1 [Compound 1223]	–	< 0.8 µM
CC(C)CCCOc1ccc(-c2cnc(-c3ccc(C[C@H](NC(=O)c4ccc(C(C)(C)C)s4)C(=O)N4CC[C@H](C(=O)O)C4)cc3)nc2)cc1 [Compound 773]	0.8 to 2.5 µM	–
CCC[C@H]1CC[C@H](C2CCN(c3cnc(-c4ccc(C[C@H](NC(=O)c5ccc(C(C)(C)C)s5)C(=O)O)cc4)nc3)CC2)CC1 [Compound 1439, (S)-2-(5-(tert-butyl)thiophene-2-carboxamido)-3-(4-(5-(4-((1s,4r)-4-propylcyclohexyl)piperidin-1-yl)pyrimidin-2-yl)phenyl)propanoic acid]	–	< 0.8 µM
CC[C@H]1CC[C@H](c2ccc(-c3cnc(-c4ccc(C[C@H](NC(=O)c5ccc(C)s5)C(=O)O)cc4)nc3)cc2)CC1 [Compound 1385]	–	5 to 10 µM
C[C@@H](NC(=O)[C@H](Cc1ccc(-c2ncc(/C=C/c3ccc(C(F)(F)F)cc3)cn2)cc1)NC(=O)c1ccc(C(C)(C)C)s1)C(=O)O [Compound 1252]	–	0.8 to 2.5 µM
CCCCc1ccc(-c2ccc(-c3cnc(-c4ccc(C[C@H](NC(=O)c5ccc(C(C)(C)C)s5)C(=O)N[C@H](C)C(=O)O)cc4)nc3)cc2)cc1 [Compound 1135]	0.8 to 2.5 µM	–
CCCCCCCOc1ccc(-c2cnc(-c3ccc(C[C@@H](NC(=O)c4ccc(C(C)(C)C)cc4)C(=O)O)cc3)nc2)cc1 [Compound 191, (R)-2-(4-(tert-butyl)benzamido)-3-(4-(5-(4-(heptyloxy)phenyl)pyrimidin-2-yl)phenyl)propanoic acid]	0.8 to 2.5 µM	–
C[C@@H](NC(=O)[C@H](Cc1ccc(-c2ncc(-c3ccc(-c4ccc(C(F)(F)F)cc4)cc3F)cn2)cc1)NC(=O)c1ccc(C(C)(C)C)s1)C(=O)O [Compound 1174]	< 0.8 µM	–
CCCCC(=O)c1ccc(-c2cnc(-c3ccc(C[C@H](NC(=O)c4ccc(C(C)(C)C)s4)C(=O)N[C@H](C)C(=O)O)cc3)nc2)c(C)c1 [Compound 1014]	5 to 10 µM	–
CCCCCCCOc1ccc(-c2cnc(-c3ccc(C[C@H](NC(=O)c4ccc(C(C)(C)C)s4)C(=O)N4CCCC4CC(=O)O)cc3)nc2)cc1 (stereo partly drawn) [Compound 621]	2.5 to 5 µM	–
CC[C@H]1CC[C@H](c2ccc(-c3cnc(-c4ccc(C[C@H](NC(=O)c5ccc(C(C)(C)C)s5)C(=O)N[C@H](Cc5c[nH]cn5)C(=O)O)cc4)nc3)cc2)CC1 [Compound 1322]	–	< 0.8 µM
CC(C)(C)c1ccc(C(=O)N[C@@H](Cc2ccc(-c3ncc(-c4ccc(-c5ccc(OC(F)(F)F)cc5)cc4)cn3)cc2)C(=O)O)s1 [Compound 1356, (S)-2-(5-(tert-butyl)thiophene-2-carboxamido)-3-(4-(5-(4′-(trifluoromethoxy)-[1,1′-biphenyl]-4-yl)pyrimidin-2-yl)phenyl)propanoic acid]	–	< 0.8 µM
CC[C@H]1CC[C@H](c2ccc(-c3cnc(-c4ccc(C[C@H](NC(=O)c5ccc(C(C)(C)C)cc5)C(=O)O)cc4)nc3)cc2)CC1 [Compound 1366]	–	< 0.8 µM
CCCCCCCOc1ccc(-c2cnc(-c3ccc(C[C@H](NC(=O)c4ccc(C(C)(C)C)s4)C(=O)N4CC(C(=O)O)CCC4C)cc3)nc2)cc1 (stereo partly drawn) [Compound 653]	< 0.8 µM	–
CC(C)(C)c1ccc(C(=O)N[C@@H](Cc2ccc(-c3ncc(-c4ccc(C5CCCC5)cc4)cn3)cc2)C(=O)N2CCC[C@H]2C(=O)O)s1 [Compound 1123]	0.8 to 2.5 µM	–
CCCCCCCOc1ccc(-c2cnc(-c3ccc(C[C@H](NC(=O)c4ccc(C(C)(C)C)s4)C(=O)N[C@H](C(=O)O)[C@@H](C)O)cc3)nc2)cc1 [Compound 645]	< 0.8 µM	–

SMILES	EC50 [1]	EC50 [2]
CCCCCCc1ccc(-c2cnc(-c3ccc(C[C@H](NC(=O)c4ccc(C(C)(C)C)cc4)C(=O)NCCC(=O)O)cc3)nc2)cc1 [Compound 678]	0.8 to 2.5 µM	–
CCC[C@H]1CC[C@H](C2CCN(c3cnc(-c4ccc(C[C@H](NC(=O)c5ccc(C(C)(C)C)s5)C(=O)NCCC(=O)O)cc4)nc3)CC2)CC1 [Compound 1433]	–	< 0.8 µM
CCc1ccc(-c2ccc(-c3cnc(-c4ccc(C[C@H](NC(=O)c5ccc(C(C)(C)C)s5)C(=O)N[C@H](C)C(=O)O)cc4)nc3)cc2)cc1 [Compound 1286]	–	< 0.8 µM
CCC[C@H]1CC[C@H](C2CCN(c3cnc(-c4ccc(C[C@H](NC(=O)c5ccc(C(C)(C)C)s5)C(=O)N[C@H](CCC(N)=O)C(=O)O)cc4)nc3)CC2)CC1 [Compound 1445]	–	< 0.8 µM
CCCCCCCOc1ccc(-c2nc(-c3ccc(C[C@H](NC(=O)c4ccc(C(C)(C)C)cc4)C(=O)N[C@H](C)C(=O)O)cc3)no2)cc1 [Compound 801]	5 to 10 µM	–
C[C@@H](NC(=O)[C@H](Cc1ccc(-c2ncc(/C=C/c3cc(F)cc(F)c3)cn2)cc1)NC(=O)c1ccc(C(C)(C)C)s1)C(=O)O [Compound 1256]	–	5 to 10 µM
CCCCCCCOc1ccc(-c2cnc(-c3ccc(C[C@H](NC(=O)c4ccc(C(C)(C)C)s4)C(=O)N4CC(C(=O)N(C)C)C4)cc3)nc2)cc1 [Compound 974]	2.5 to 5 µM	–
CC[C@H]1CC[C@H](c2ccc(-c3cnc(-c4ccc(C[C@H](NC(=O)c5ccc(C(C)(C)C)s5)C(=O)N[C@H](C(=O)O)[C@@H](C)O)cc4)nc3)cc2)CC1 [Compound 1327]	–	< 0.8 µM
CC[C@H]1CC[C@H](c2ccc(-c3cnc(-c4ccc(C[C@H](NC(=O)c5ccc(C(C)C)cc5)C(=O)N5CC(C(=O)O)C5)cc4)nc3)cc2)CC1 [Compound 1169]	< 0.8 µM	–
CC(C)CCOc1ccc(-c2cnc(-c3ccc(C[C@H](NC(=O)c4ccc(C(C)(C)C)s4)C(=O)NC(C(=O)O)C(O)c4ccccc4)cc3)nc2)cc1 (stereo partly drawn) [Compound 942]	2.5 to 5 µM	–
CC(C)Sc1ccc(-c2cnc(-c3ccc(C[C@H](NC(=O)c4ccc(C(C)(C)C)s4)C(=O)N[C@H](C)C(=O)O)cc3)nc2)cc1 [Compound 1035]	0.8 to 2.5 µM	–
CC[C@H]1CC[C@H](c2ccc(-c3cnc(-c4ccc(C[C@H](NC(=O)c5ccc(C(C)(C)C)s5)C(=O)N[C@H](C(=O)O)C(C)C)cc4)nc3)cc2)CC1 [Compound 1328]	–	0.8 to 2.5 µM
CCCCCOc1ccc(-c2cnc(-c3ccc(C[C@H](NC(=O)c4ccc(C(C)(C)C)s4)C(=O)NC(C(=O)O)C(O)c4ccccc4)cc3)nc2)cc1 (stereo partly drawn) [Compound 925]	2.5 to 5 µM	–
C[C@@H](NC(=O)[C@H](Cc1ccc(-c2ncc(-c3ccc(OCC(C)(C)C)cc3)cn2)cc1)NC(=O)c1ccc(C(C)(C)C)cc1)C(=O)O [Compound 726]	0.8 to 2.5 µM	–
CCCCCCCOc1ccc2nc(-c3ccc(C[C@H](NC(=O)c4ccc(C(C)(C)C)cc4)C(=O)N[C@H](C)C(=O)O)cc3)ncc2c1 [Compound 809]	0.8 to 2.5 µM	–
CCCC1CCC(N2CC=C(c3cnc(-c4ccc(C[C@H](NC(=O)c5ccc(C(C)(C)C)s5)C(=O)N5CC(C(=O)O)C5)cc4)nc3)CC2)CC1 (stereo partly drawn) [Compound 1434]	–	5 to 10 µM
CCCCCCCOc1ccc(-c2cnc(-c3ccc(C[C@H](NC(=O)c4ccc(C(C)(C)C)cc4)C(=O)NC(CC(=O)O)c4cccc(O)c4)cc3)nc2)cc1 (stereo partly drawn) [Compound 538]	5 to 10 µM	–
CCCCCCCOc1ccc(-c2cnc(-c3ccc(C[C@H](NC(=O)c4ccc(CCC)cc4)C(=O)N[C@H](C)C(=O)O)cc3)nc2)cc1 [Compound 830]	5 to 10 µM	–
C[C@@H](NC(=O)[C@H](Cc1ccc(-c2ncc(OCc3ccc(C(F)(F)F)cc3)cn2)cc1)NC(=O)c1ccc(C(C)(C)C)s1)C(=O)O [Compound 1272]	–	5 to 10 µM
CC1CCC(c2ccc(-c3cnc(-c4ccc(C[C@H](NC(=O)c5ccc(C(C)(C)C)s5)C(=O)N5CC(C(=O)O)C5)cc4)nc3)cc2)CC1 (stereo partly drawn) [Compound 1187]	< 0.8 µM	–
CCCCCCCOc1ccc(-c2cnc(-c3ccc(C[C@H](NC(=O)c4ccc(CC)cc4)C(=O)NC(C(=O)O)C(O)c4ccccc4)cc3)nc2)cc1 (stereo partly drawn) [Compound 947]	0.8 to 2.5 µM	–
